Reference: US5068233A, “Synergistic combination of azelastine and theophylline or azelastine and α-mimetics” (Asta Pharma Aktiengesellschaft, priority 1987, dated 1991)
Structures can show the parent of a compound that is named as a salt.

Test system: isolated guinea pig ileum (histamine spasm)
Assay: histamine spasm test in isolated guinea pig ileum (Magnus), % inhibition of histamine spasm
Set-up: antihistaminic activity (mean value), starting value / increase of antihistaminic activity (mean value): concentration or dose not given beside the values
Method: These trials were conducted in association with the histamine spasm test in isolated guinea pig ileum. Here, for example, the azelastine dosage (hydrochloride) is maintained constant and the dosage of theophylline or β-mimetic (for example reproterol) is changed and in each case intestinal spasm inhibition is determined as a % of uninhibited histamine spasm (Method of determining synergism according to Magnus).
Guinea pigs of both sexes having a mean weight of 400-600 g are stunned by a blow on the neck and exsanguinated. The lower part of the small intestine above the bottom 10 cm before the transition to the large intestine is dissected, flushed with cold Tyrode's solution and incubated in a refrigerator for 1 hour. 3-4 cm long sections are then cut and suspended in the immersion baths (Tyrode's solution^1) 37° C., carbogen gassing^2) under isotonic conditions, a tension of 2 g being applied. Following an adjustment time of 30 minutes the contraction in response to a standard spasmogen concentration of histamine (2×10^-7 mol/liter) is determined. […] The effects of the individual components and their combination are compared with one another.
1 Tyrode's solution: standardized, glucose-containing nutrient solution that has the same osmotic pressure as blood
2 Carbogen: gaseous mixture of 95% oxygen and 5% carbon dioxide.

Compound: Cn1c(=O)c2c(ncn2CCCNCC(O)c2cc(O)cc(O)c2)n(C)c1=O (centres unmarked) [Reproterol.HCl]
- % inhibition (histamine 2 × 10^-10 mol/ml) (Table 2, Reproterol.HCl 0.02 μg/ml alone, group *, N = 8): 14.5 ± 16.6%
- % inhibition (histamine 2 × 10^-10 mol/ml) (Table 2, Reproterol.HCl 0.04 μg/ml alone, group **, N = 8): 14.5 ± 18.1%
- % inhibition (histamine 2 × 10^-10 mol/ml) (Table 2, Reproterol.HCl 0.06 μg/ml alone, group ***, N = 8): 48.5 ± 21.3%

Compound: CN1CCCC(n2nc(Cc3ccc(Cl)cc3)c3ccccc3c2=O)CC1 (centres unmarked) [azelastine]
- increase of antihistaminic activity (mean value) (azelastine activity increased in the combination, partner not given): 26%
- antihistaminic activity (mean value), starting value (azelastine, mean value before increase): 36%

Compound: Cn1c(=O)c2c(ncn2CCCNCC(O)c2cc(O)cc(O)c2)n(C)c1=O (stereo not drawn) [reproterol, 7-{3[(β,3,5-trihydroxyphenethyl)-amino]propyl}-theophylline]
- antihistaminic activity (mean value), starting value (reproterol, mean value before addition of azelastine): 26%
- increase of antihistaminic activity (mean value) (reproterol, on addition of azelastine): 38%

Compound: CN1CCCC(n2nc(Cc3ccc(Cl)cc3)c3ccccc3c2=O)CC1 (centres unmarked) [Azelastine.HCl]
- % inhibition (histamine 2 × 10^-10 mol/ml) (Table 1, Azelastine.HCl 0.001 μg/ml alone, group ****, N = 8): 46.3 ± 34.6%
- % inhibition (histamine 2 × 10^-10 mol/ml) (Table 1, Azelastine.HCl 0.001 μg/ml alone, group ***, N = 8): 9.4 ± 12.4%
- % inhibition (histamine 2 × 10^-10 mol/ml) (Table 1, Azelastine.HCl 0.001 μg/ml alone, group **, N = 4): 49.3 ± 1.9%
- % inhibition (histamine 2 × 10^-10 mol/ml) (Table 1, Azelastine.HCl 0.001 μg/ml alone, group *, N = 8): 38.9 ± 19.9%
- % inhibition (histamine 2 × 10^-10 mol/ml) (Table 2, Azelastine.HCl 0.001 μg/ml alone, group ***, N = 8): 45.9 ± 21.1%
- % inhibition (histamine 2 × 10^-10 mol/ml) (Table 2, Azelastine.HCl 0.001 μg/ml alone, group **, N = 8): 26.6 ± 15.1%
- % inhibition (histamine 2 × 10^-10 mol/ml) (Table 2, Azelastine.HCl 0.001 μg/ml alone, group *, N = 8): 35.1 ± 25.7%

Compound: Cn1c(=O)c2[nH]cnc2n(C)c1=O [Theophylline]
- % inhibition (histamine 2 × 10^-10 mol/ml) (Table 1, Theophylline 10 μg/ml alone, group *, N = 8): 9.0 ± 12.8%
- % inhibition (histamine 2 × 10^-10 mol/ml) (Table 1, Theophylline 20 μg/ml alone, group **, N = 4): 25.0 ± 15.1%
- % inhibition (histamine 2 × 10^-10 mol/ml) (Table 1, Theophylline 40 μg/ml alone, group ***, N = 8): 39.6 ± 26.9%
- % inhibition (histamine 2 × 10^-10 mol/ml) (Table 1, Theophylline 60 μg/ml alone, group ****, N = 8): 20.6 ± 15.5%
- antihistaminic activity (mean value), starting value (theophylline, mean value before addition of azelastine): 24%
- increase of antihistaminic activity (mean value) (theophylline, upon addition of azelastine): 38%
